Laboratory results published in patent US10166237B2, “Compounds and methods for inducing chondrogenesis” (The Scripps Research Institute, priority 2011, dated 2019).

Legend:
[1] = tested on: HEK 293 cells; experiment: toxicity in HEK 293 cells; format: cell-based; conditions: 100 μM
[2] = tested on: hMSC; experiment: type II collagen and aggrecan immunohistochemistry in hMSC pellet culture; format: cell-based, human; conditions: 21 days
Excerpt: (§1) In the screen, hMSCs were used as a surrogate to future targeting of the resident MSCs with the cartilage joint. It was in that setting upon which we identified PRO1. In a joint injury, the primary cell type a therapeutic would have contact with is the chondrocyte. Although cartilage or chondrocyte-targeted screening has not lead to the development of a successful drug modifying osteoarthritis drug (DMOAD) to date, it is believed that a stem cell-based therapeutic would protect and even repair the existing chondrocytes. Therefore, protection of the articular chondrocytes and cartilage from a mature bovine knee was assessed. PRO1 and its analogues were incubated with primary bovine chondrocytes or cartilage explants cultures grown in the presence of TNFα and oncostatin M to mimic the cytokine-induced damage that can occur during OA. In the presence of the cytokine cocktail, in vitro cultured primary chondrocytes released 4-5 fold more nitric oxide (NO) than the untreated chondrocytes (50 μM vs 10 μM) as measured by the Greiss reaction. […]
(§2) Primary hMSCs were plated (10,000/well) in 384-well plates and cultured for 18 days. […] 20 μl of the supernatant was mixed with 20 μl of the Greiss reagent and quantitated at 540 nm as described by the Promega kit instructions. […]

[3] = tested on: synovial fibroblasts; experiment: toxicity in synovial fibroblasts; format: cell-based; conditions: 100 μM
[4] = tested on: female 129SVE mice; experiment: surgically induced cartilage injury (ACL, MCL, MMTL transection); format: in vivo; conditions: IA injection days 7, 14 and 21
Experimental: Surgical transection of the ACL, MCL, and MMTL was performed to induce cartilage injury in female 129SVE mice. Mice were dosed by IA injection on days 7, 14 and 21. The medial tibial plateaus from representative mice were assessed on day 28 (FIG. 4A). Histomorphometric analyses and grading by two blinded observers using a modified OARSI scoring system determined the joint severity scores of the […] tibial plateau on day 28 after surgical induction (FIG. 4B). At 28 days, peripheral blood was collected by retro-orbital bleeding and the serum was used to determine the cleaved type II collagen fragments (CTX-II levels) by ELISA (Serum Pre-Clinical Cartilaps, Immunodiagnostic Systems, Fountain Hills, Ariz.). n=15/treatment group (FIG. 4C).

[5] = tested on: bovine cartilage explants; experiment: cytokine-induced GAG release from cartilage explants ex vivo; format: cell-based; conditions: TNFα and oncostatin M, 72 hours; up to
Excerpt: as §1, §2

[6] = tested on: primary bovine chondrocytes; experiment: inhibition of cytokine-induced nitric oxide release (Greiss reaction); format: cell-based
Excerpt: In the screen, hMSCs were used as a surrogate to future targeting of the resident MSCs with the cartilage joint. It was in that setting upon which we identified PRO1. In a joint injury, the primary cell type a therapeutic would have contact with is the chondrocyte. Although cartilage or chondrocyte-targeted screening has not lead to the development of a successful drug modifying osteoarthritis drug (DMOAD) to date, it is believed that a stem cell-based therapeutic would protect and even repair the existing chondrocytes. Therefore, protection of the articular chondrocytes and cartilage from a mature bovine knee was assessed. PRO1 and its analogues were incubated with primary bovine chondrocytes or cartilage explants cultures grown in the presence of TNFα and oncostatin M to mimic the cytokine-induced damage that can occur during OA. In the presence of the cytokine cocktail, in vitro cultured primary chondrocytes released 4-5 fold more nitric oxide (NO) than the untreated chondrocytes (50 μM vs 10 μM) as measured by the Greiss reaction. In cells treated with the cytokine cocktail and PRO1, the small molecule could effectively block the release of NO by up to 70% FIG. 2C). Similarly, in ex vivo treated cartilage explants, cytokine-induced release of glycosaminoglycans (GAG) was reduced by up to 60% by PRO1 (FIG. 2D). Finally, hMSC were grown in pellet culture for 21 days.
Primary hMSCs were plated (10,000/well) in 384-well plates and cultured for 18 days. The cells were fixed with 4% formalin, permeabilized with triton (0.5%), digested with 0.5 mg/ml collagenase II to unwind the collagen fibrils, and then immunostained with an antibody recognizing type II collagen. DAPI (2 μg/ml) was added to visualize the nuclei. The chondrogenic nodules stained positive for type II collagen but lacked expression of type X collagen and osteocalcin, markers for chondrocyte hypertrophy and osteoblasts, respectively (not shown). 10,000 hMSCs (passages 3-5) were plated in Greiner 384-well low-bottom plates on day 1. The cells were allowed to adhere and stimulated for 48 hrs (days 2-3) with the indicated stimuli in MSC growth media (Millipore). The media was then removed and replaced with serum-free DMEM for an additional 16 days. This media was replenished on days 10 and 15 of the assay. Primary bovine chondrocytes were isolated from the articular surfaces from mature knees. After one week of culture, 8,500 cells were trypsinized and plated in Greiner 384-well white clear-bottom plates in growth media. […] 20 μl of the supernatant was mixed with 20 μl of the Greiss reagent and quantitated at 540 nm as described by the Promega kit instructions. Bovine cartilage explants (cut in circular explants in a 96 well plate) were cultured in the presence of 20 ng/ml TNFα and 10 ng/ml oncostatin M to induce GAG release for 72 hours (FIG. 2D). PRO1 was added at the indicated concentrations during the entire 72 hrs. […] Parafin sections were hydrated, incubated in low pH Antigen unmasking solution (Vector) at 90 C for 10 minutes, permeabilized with 0.1% collagenase II (only for the sections stained with type II collagen) for 10 minutes, blocked with CAS block for 10 minutes and then incubated with the primary antibody (type II collagen, aggrecan or Timp1) antibody (Abcam) overnight at 4 C. The antigens were visualized through standard ABC detection methods and developed with DAB. Representative of 3 sections stained/treatment group (independent experiments).

[7] = in vivo
[8] = tested on: hMSCs; experiment: toxicity in hMSCs; format: cell-based, human; conditions: 100 μM

SMILES: O=C(O)c1ccccc1C(=O)Nc1ccc(-c2ccccc2)cc1 [AKT]
- toxicity [1]: No toxicity
- type II collagen and aggrecan expression [2]: increase type II collagen and aggrecan expression
- toxicity [3]: No toxicity
- cartilage damage ([4]; day 28): Protection
- CTX-II peptide in plasma ([4]; day 28, ELISA): Inhibition
- reduction of cytokine-induced release of glycosaminoglycans (GAG) [5]: up to 60%
- block of cytokine-induced release of NO ([6]; TNFα and oncostatin M cocktail, up to): up to 70%
- IC50 ([6]; second value of the cell (after the slash), TNFα and oncostatin M, 48 hours, read-out: NO INHIBTION μM IC50): 0.45 µM
- Tmax ([7]; 0.05 mg/kg): 1 h
- bioavailability ([7]; 0.05 mg/kg): ~22%
- AUC(0-inf) ([7]; 0.05 mg/kg, AUC0-inf): 0.342 µM·h
- Cmax ([7]; 0.05 mg/kg, Cmax): ~100 nM
- concentration at 1 h ([7]; 0.05 mg/kg, Plasma Conc.): 134 nM
- half-life ([7]; 0.05 mg/kg, T1/2): ~2 h
- concentration at 1 h ([7]; Plasma Conc.): 102 nM
- concentration at 3 h ([7]; Plasma Conc.): 33.6 nM
- concentration at 7 h ([7]; Plasma Conc.): 11.8 nM
- toxicity [8]: No toxicity
